Earlier results, collected in patent publication US20070014819A1, “Method of emulsifying phytosterol by natural saponin,emulsion prepared thereby and water dispersible phytosterol powder product” (WECKTECK BIOTECHNOLOGY COMPANY LIMITED, priority 2005, published 2007).

Key:
[1] = administered orally directly
[2] = purified
[3] = around the world

β-sitosterol [phytosterol]
absorption rate in a human body [1]: less than 5%
solubility in water or oil and most solvents [2]: difficult to be dissolved
reduction of total cholesterol in blood (cholesterol in blood; daily intake of 1.4 g for one month): about 14%
reduction of the concentration of LDL (cholesterol in blood; daily intake of more than 1.3 g, FDA article): effectively reduce

COCc1c(C(C)C)nc(C(C)C)c(/C=C/[C@@H](O)C[C@@H](O)CC(=O)O)c1-c1ccc(F)cc1 [Baycol, cerivastatin]
people dead from the side effects [3]: more than 100 people

CC(C)CCC[C@@H](C)[C@H]1CC[C@H]2[C@@H]3CC=C4C[C@@H](O)CC[C@]4(C)[C@H]3CC[C@]12C [cholesterol, reference compound]
absorption rate in a human body [1]: more than 50%
